# Experimental data from PMC8088467 (Cell Proliferation, 2021).
# System: Candida albicans SC5314
# Assay: Morphology assay (light microscope and SEM)
# Format: cell-based
# Details: 1 x 10^6 CFU/mL, RP medium, 8 hours 37°C; 200 nM TDNs, 20 µM His‐5 or 200 nM TDN/His‐5 (1:100); bright field images
# Protocol: Candida albicans SC5314 (wild type) obtained from our laboratory were commercially from the American Type Culture Collection. ^34 Candida albicans strains were propagated on liquid or solid YPD medium at 30°C. The yeast cells used in all experiments were in the exponential growth phase (OD600 = 0.6). For inducing hyphae, C. albicans cells were grown in RPMI 1640 medium containing 2.5% foetal calf serum, 2 mM L‐glutamine, 20 mM HEPES and 16 mM sodium hydrogen carbonate (pH 7.0) (RP medium) at 37°C.
# After fixation, the samples were dehydrated with a gradient series of ethanol. Specimens were observed under a Leica DM1000 microscope (Leica Microsystems) and a scanning electron microscope (Inspect F, FEI, America). ^40 , ^44
substance,measurement,value
Histatin 5,Morphology of C. albicans (hyphae formation),more yeast cells and fewer hyphae
